How the values were obtained:
[1] = test system: passively induced IgAN (P-IgAN) mice; experiment: passively induced IgAN (P-IgAN) mouse model; type: in vivo, C57BL/6 mice
Protocol: (§1) Two complementary mouse models of IgAN—a passive IgAN (P-IgAN) and a spontaneous IgAN in gddY mice (S-IgAN) were used to examine therapeutic effects of LCC18 on renal conditions of IgAN. […] Eight-week-old female C57BL/6 mice were injected with IgA anti-PC intraperitoneally and PnC intravenously for 14 or 28 consecutive days. Treatment with LCC18 (daily dose of 10 mg/kg body weight) dissolved in polyethylene glycol 400 (PEG 400) (Sigma-Aldrich, St. Louis, MO, USA) via an intraperitoneal (IP) route (P-IgAN+LCC18), and another group of IgAN mice was administered vehicle only (PEG 400) as the disease control group (P-IgAN+Vehicle). Mice were killed at days 14 and 28. Age-matched C57BL/6 mice injected with saline (P-WT+Saline) were used as normal controls; (2) a spontaneous IgAN in gddY (S-IgAN) mice, featuring severe glomerular and tubulointerstitial lesions, characterized by mesangial proliferation, and mesangial matrix expansion. LCC18 (S-IgAN+LCC18) or vehicle (S-IgAN+Vehicle) was administered to mice daily beginning at 8 weeks of age and continuing throughout the present invention. The gddY mice were sacrificed at 32 weeks. Age-matched BALB/c mice served as normal controls (S-WT). All animal experiments were conducted with approval of the Institutional Animal Care and Use Committee of the National Defense Medical Center, Taipei, Taiwan, and were conducted in accordance with NIH Guidelines for the Care and Use of Laboratory Animals.
(§2) For the P-IgAN model, the mice received daily at day 7 after disease induction, either LCC18 (10 mg/kg body weight) (P-IgAN+LCC18) or vehicle (P-IgAN+Vehicle) via IP throughout the study. For the S-IgAN model, LCC18 (S-IgAN+LCC18) or vehicle (S-IgAN+Vehicle) was administered to the mice daily throughout the study via IP, beginning at 8 weeks of age. […] This beneficial effect began on day 21 after disease induction and increased until day 28 when mice were sacrificed (FIG. 1C).

[2] = test system: spontaneous IgAN gddY (S-IgAN) mice; experiment: spontaneous IgAN in gddY mice (S-IgAN) model; type: in vivo
Protocol: as §1, §2

[3] = test system: bone marrow-derived DCs (BMDCs); experiment: DC activation (CD80 in CD11c+ cells) by flow cytometry in IgA ICs-stimulated BMDCs; type: cell-based; settings: LCC18-treated IgA ICs-stimulated BMDCs; FIG. 3A
Protocol: (§3) FIG. 3A-3H depict that LCC18 inhibits activation of DCs and systemic immune responses in IgAN model. The fluorescence intensity of CD80^+ in gated CD11c^+ cells (within gated CD11c^+ cells, grey-filled area created by staining with an isotype-matched control antibody) determined by flow cytometry (FIG. 3A). T-cell proliferation measured by [^3H]thymidine (FIG. 3B). BMDCs were incubated for 24 h with IgA ICs and co-cultured with OT-II CD′ T cells pulsed with OVA peptide. P-IgAN mouse model (FIG. 3C, FIG. 3D, FIG. 3E). S-IgAN mouse model (FIG. 3F, FIG. 3G, FIG. 3H). CD3 T-cell proliferation in splenocytes by [^3H]thymidine uptake (FIG. 3C and FIG. 3F). Numbers of CD4^+CD44^hiCD62L^lo (FIG. 3D and FIG. 3G) and CD8^+CD44^hiCD62L^lo-hi (FIG. 3E and FIG. 3H) memory T cells among splenic cells assessed by flow cytometry. WT, wild type. #Not detectable. BMDCs, bone marrow-derived dendritic cells. Bars show the mean±SD of 7 mice per group. *p<0.05, **p<0.01, ***p<0.005, ****p<0.001. ns, no significant difference. Data of FIG. 3B-FIG. 3H were analyzed using ANOVA (with Dunnett's multiple comparisons test).

CD4+ T cells = experiment: OVA-specific T cell proliferation assay (BMDCs co-cultured with OT-II T cells, [3H]thymidine); type: cell-based; settings: OT-II T cells pulsed with OVA peptide; FIG. 3B
Protocol: as §3

ASLN mice = experiment: accelerated, severe lupus nephritis (ASLN) model; type: in vivo, NZB/WF1 mice
Protocol: To establish ASLN model mice, eight-week-old female NZB/WF1 mice (prior to autoantibody production) were given LPS (Sigma, MO, USA) (0.8 mg/kg body weight) twice a week by intraperitoneal injection. Seven days after the first injection of LPS, seven mice each received either LCC18 (10 mg/kg body weight) or vehicle (polyethylene glycol 400) (Sigma) daily via intraperitoneal injections. Another group of age-matched female NZB/WF1 mice were injected with saline and served as normal controls. All mice were sacrificed 5 weeks after induction of the disease. All animal experiments were performed in compliance with the NIH Guidelines for the Care and Use of Laboratory Animals with approval of the Institutional Animal Care and Use Committee of The National Defense Medical Center, Taipei, Taiwan.
Next, an ASLN model in NZB/W F1 mice, which mimics acute onset of severe LN in human, was validated potential therapeutic effects of LCC18 in the present invention. LN was induced in these mice by intermittent LPS injections to simulate SLE patients following bacterial or viral infections believed to act as environmental triggers. LCC18 was administered daily after the onset of the renal condition in ASLN mice (ASLN+LCC18 mice), while ASLN mice that received vehicle only (ASLN+Vehicle mice) were used as disease control mice.
Urine samples were collected for albuminuria assessment using the ratio of urine albumin/urine creatinine (Cr). Serum blood urea nitrogen (BUN) and Cr levels were determined.
On the other hand, renal tissues were fixed in formalin buffer and paraffin-embedded and stained with hematoxylin and eosin (H&E). Scoring of renal pathology was evaluated.
Levels of anti-dsDNA antibody (Alpha Diagnostic International, TX, USA) were measured using commercial ELISA kits.
Reactive oxygen species (ROS) levels in renal tissues were measured by a lucigenin-enhanced chemiluminescence assay.

UUO mice = experiment: unilateral ureteral obstruction (UUO) model mimicking renal tubulointerstitial lesions; type: in vivo; settings: days 7 and 14
Text: To establish Unilateral ureteral obstruction (UUO) model for mimicking renal tubulointerstitial lesions (TILs), the mice (8-12 weeks of age) were anesthetized followed by a lateral incision on the back of the mouse. After the left ureter was exposed, it was tied with a silk suture at two points and permanently ligated. Sham-operated mice, which underwent an identical procedure but without ureteric ligation, were used as sham control. After 7 or 14 days, the mice were euthanized, and then, renal tissues, pelvis urine, and renal draining lymph nodes were collected.
LCC18 (10 mg/kg body weight) was administered intraperitoneally 1 day before (preventive group) or 3 days after (therapeutic group) the induction of UUO, or 1 day after the ligation of renal vessels in this model. Diseased mice that received only polyethylene glycol 400 (PEG 400) (Sigma-Aldrich, St. Louis, MO, USA) daily via intraperitoneal injections were used as the vehicle control group. All animal experiments were performed with the approval of the Institutional Animal Care and Use Committee of the National Defense Medical Center, Taiwan, in compliance with the NIH Guide for the Care and Use of Laboratory Animals.
Renal tissues were fixed in 10% buffered formalin, embedded in paraffin, and 3-μm thick sections were cut for haematoxylin and eosin (H&E) staining. Fifty glomeruli were examined in at least two renal tissue sections per slide by light microscopy at ×400 magnification. The percentage of glomeruli showing proliferation, or glomerular sclerosis was determined.
The quantitative analysis of the data obtained from hematoxylin and eosin (H&E) and Masson's trichrome staining of renal histopathological evaluation was used by quantitative imaging software (Pax-it; Paxcam, Villa Park, IL).
Further, in another embodiment, formalin-fixed and paraffin-embedded renal sections were incubated with primary antibodies followed by biotinylated secondary antibodies and avidin-biotin-peroxidase complex (Dako) for IHC staining.

CKDs' subject = experiment: summary of effects in kidney and serum of the CKDs' subject; type: in vivo
Text: In summary, the LCC18 attenuates glomerular cell proliferation about 15˜35%, attenuates sclerosis and fibrosis, attenuates crescent formation about 40˜90%, attenuates fibrinoid necrosis about 40˜90% in a kidney of the CKDs' subject.
Further, the LCC18 can regulate renal function and albuminuria, downregulate serum levels of blood urea nitrogen (serum levels of BUN) about 50˜60%, serum levels of creatinine (serum levels of Cr) about 30˜40% and serum levels of IgG anti-dsDNA about 60˜70% of the CKDs' subject.

[4] = in a kidney of the CKDs' subject

## O=c1oc2ccc(-c3ccc(F)cc3F)cc2c(=O)n1-c1cccc(C(F)(F)F)c1 [LCC18, 6-(2,4-difluorophenyl)-3-(3-(trifluoromethyl)phenyl)-2H-benzo[e][1,3]oxazine-2,4(3H)-dione]
[1]; P-IgAN+LCC18 vs P-IgAN+Vehicle, 10 mg/kg daily IP from day 7, FIG. 1A
  serum levels of BUN: Significantly lower
[1]; P-IgAN+LCC18 vs P-IgAN+Vehicle, 10 mg/kg daily IP from day 7, FIG. 1B
  serum levels of Cr: Significantly lower
[1]; flow cytometry, FIG. 3D
  increase in number of CD4+CD44hiCD62Llo memory T cells in the spleen: inhibited
[1]; flow cytometry, FIG. 3E
  increase in number of CD8+CD44hiCD62Llo-hi memory T cells in the spleen: inhibited
[1]; light microscopy, vs P-IgAN+Vehicle, FIG. 1G-1I
  severity of renal lesions (glomerular cell proliferation, sclerosis in glomeruli), H&E: markedly reduced
[1]; vs P-IgAN+Vehicle, FIG. 2A
  ROS levels in renal tissues: Significantly reduced
[1]; vs P-IgAN+Vehicle, FIG. 3C
  T cell proliferation in splenocytes, [3H] thymidine uptake: significantly decreased
[1]; vs P-IgAN+Vehicle, effect began on day 21 and increased until day 28, FIG. 1C
  urine levels of albumin (urine albumin/Cr ratio): significantly decreased
[2]; S-IgAN+LCC18 vs S-IgAN+Vehicle, daily IP from 8 weeks of age, FIG. 1D
  serum levels of BUN: benefited from treatment
[2]; S-IgAN+LCC18 vs S-IgAN+Vehicle, daily IP from 8 weeks of age, FIG. 1E
  serum levels of Cr: benefited from treatment
[2]; flow cytometry, FIG. 3G
  increase in splenic number of CD4+CD44hiCD62Llo memory T cells: inhibited
[2]; flow cytometry, FIG. 3H
  increase in splenic number of CD8+CD44hiCD62Llo-hi memory T cells: inhibited
[2]; vs S-IgAN+Vehicle, FIG. 2B
  ROS levels in renal tissues: Significantly reduced
[2]; vs S-IgAN+Vehicle, FIG. 3F
  T cell proliferation in splenocytes, [3H] thymidine uptake: significantly decreased
[2]; vs S-IgAN+Vehicle, beginning on week 24, continuing to week 32, FIG. 1F
  urine levels of albumin (urine albumin/Cr ratio): therapeutic effect was also observed
[3]
  fluorescence intensity levels of CD11c+CD80+ cells (activation marker for DCs): Significantly decreased
CD4+ T cells
  CD4+ T cell proliferation induced by IgA ICs-stimulated BMDCs: inhibited
ASLN mice; ASLN+LCC18 vs ASLN+Vehicle, 10 mg/kg daily IP, FIG. 4A
  elevated serum levels of BUN: significantly inhibited
ASLN mice; ASLN+LCC18 vs ASLN+Vehicle, 10 mg/kg daily IP, FIG. 4B
  elevated serum levels of Cr: significantly inhibited
ASLN mice; ELISA, vs ASLN+Vehicle, FIG. 4G
  serum anti-dsDNA levels: Greatly reduced
ASLN mice; flow cytometry, FIG. 5A
  CD4+ T cells (CD4+CD44hiCD62Llo T memory cells) in splenocytes: inhibited
ASLN mice; flow cytometry, FIG. 5B
  CD8+ T cells (CD8+CD44hiCD62Llo-hi T memory cells) in splenocytes: inhibited
ASLN mice; flow cytometry, FIG. 5C
  Treg cell differentiation (CD4+CD25+Foxp3+) in splenocytes: enhanced
ASLN mice; lucigenin-enhanced chemiluminescence, vs ASLN+Vehicle, FIG. 6
  renal levels of ROS: significantly reduced
ASLN mice; vs ASLN+Vehicle, FIG. 4C
  albuminuria (urine albumin/urine Cr): greatly reduced
ASLN mice; vs ASLN+Vehicle, FIG. 4D-4F
  pathological changes including intrinsic cell proliferation and crescent formation, H&E scoring: significantly inhibited
UUO mice; 10 mg/kg IP, vs Vehicle+UUO, FIG. 7A-7D
  renal fibrotic changes (H&E TILs score, Masson's trichrome fibrotic area): greatly improved
UUO mice; vs UUO+Vehicle, FIG. 8
  increased renal expression of Col-III, IHC: inhibited
  increased renal expression of p-Smad2/3, IHC: inhibited
CKDs' subject; CKDs' subject
  downregulation of serum levels of IgG anti-dsDNA: 60˜70%
  downregulation of serum levels of blood urea nitrogen (BUN): 50˜60%
  downregulation of serum levels of creatinine (Cr): 30˜40%
CKDs' subject; [4]
  attenuation of crescent formation: 40˜90%
  attenuation of fibrinoid necrosis: 40˜90%
  attenuation of glomerular cell proliferation: 15˜35%
  sclerosis and fibrosis: attenuates
